Results from patent publication US8921267B2, “Safening 6-(trisubstituted phenyl)-4-amino-2-pyridinecarboxylate herbicide injury on cereal crops” (Dow AgroSciences LLC, priority 2008, dated 2014).
Counter-ions that a name gives are not always drawn.

How the values were obtained:
Type in all cases: in vivo
[1] = tested on: wheat (Triticum aestivum L; TRZAS); assay: Postemergence herbicidal safening, greenhouse, visual injury: wheat
Method: (§1) Evaluation of Postemergence Herbicidal Safening in Cereal Crops
(§2) Seeds of the desired test plant species were planted in Sun Gro MetroMix® 306 planting mixture, which typically has a pH of 6.0 to 6.8 and an organic matter content of about 30 percent, in plastic pots with a surface area of 103.2 square centimeters (cm^2). When required to ensure good germination and healthy plants, a fungicide treatment and/or other chemical or physical treatment was applied. The plants were grown for 7-36 days (d) in a greenhouse with an approximate 14-hour (h) photoperiod which was maintained at about 18° C. during the day and 17° C. during the night. Nutrients and water were added on a regular basis and supplemental lighting was provided with overhead metal halide 1000-Watt lamps as necessary. The plants were employed for testing when they reached the second or third true leaf stage.
(§3) Weighed amounts of esters (methyl) or salts (TEA [triethylammonium], K [potassium]) of 4-amino-3-chloro-6-(4-chloro-2-fluoro-3-methoxyphenyl)pyridine-2-carboxylic acid (Compound 1) were dissolved in a volume of 97:3 volume/volume (v/v) acetone/dimethylsulfoxide (DMSO) to obtain stock solutions. […] The concentrated stock solutions were diluted with an aqueous mixture of 1.5% v/v of Agri-dex crop oil concentrate to provide the appropriate application rates. Compound requirements are based upon a 12 mL application volume at a rate of 187 liters per hectare (L/ha). Stocks solutions of the safeners were prepared following the same procedure. Spray solutions of the safeners and experimental compound mixtures were prepared by adding the stock solutions to the appropriate amount of dilution solution to form a 12 mL spray solution with active ingredients in two-way combinations. Formulated compounds were applied to the plant material with an overhead Mandel track sprayer equipped with 8002E nozzles calibrated to deliver 187 L/ha over an application area of 0.503 square meters (m^2) at a spray height of 18 inches (43 centimeters (cm)) above average plant canopy. Control plants were sprayed in the same manner with the solvent blank.
(§4) The treated plants and control plants were placed in a greenhouse as described above and watered by sub-irrigation to prevent wash-off of the test compounds. After 20-22 d, the condition of the test plants as compared with that of the control plants was determined visually and scored on a scale of 0 to 100 percent where 0 corresponds to no injury and 100 corresponds to complete kill.
(§5) Colby's equation was used to determine the herbicidal effects expected from the mixtures (Colby, S. R. Calculation of the synergistic and antagonistic response of herbicide combinations. Weeds 1967, 15, 20-22.).
(§6) The following equation was used to calculate the expected activity of mixtures containing two active ingredients, A and B: Expected=A+B−(A×B/100)
(§7) A=observed efficacy of active ingredient A at the same concentration as used in the mixture.
(§8) B=observed efficacy of active ingredient B at the same concentration as used in the mixture.

[2] = tested on: barley (Hordeum vulgare L; HORVS); assay: Postemergence herbicidal safening, greenhouse, visual injury: barley
Method: as §1, §2, §3, §4, §5, §6, §7, §8

[3] = tested on: scented mayweed (Matricaria chamomila L; MATCH); assay: Postemergence herbicidal activity, greenhouse, visual injury: scented mayweed; set-up: key: % visual injury: 0 = no injury, 100 = complete kill
Method: as §1, §2, §3, §4, §5, §6, §7, §8

[4] = tested on: wild pansy (Viola tricolor L; VIOTR); assay: Postemergence herbicidal activity, greenhouse, visual injury: wild pansy; set-up: key: visual injury, 0–100%: 0 = no injury, 100 = complete kill
Method: as §1, §2, §3, §4, §5, §6, §7, §8

[5] = tested on: cleavers (Galium aparine L; GALAP); assay: Postemergence herbicidal activity, greenhouse, visual injury: cleavers; set-up: key: visual injury, 0–100%: 0 = no injury, 100 = complete kill
Method: as §1, §2, §3, §4, §5, §6, §7, §8

[6] = tested on: kochia (Kochia scoparia L; KCHSC); assay: Postemergence herbicidal activity, greenhouse, visual injury: kochia; set-up: key: % visual injury: 0 = no injury, 100 = complete kill
Method: as §1, §2, §3, §4, §5, §6, §7, §8

[7] = tested on: purple deadnettle (Lamium purpureum L; LAMPU); assay: Postemergence herbicidal activity, greenhouse, visual injury: purple deadnettle; set-up: key: visual injury, 0–100%: 0 = no injury, 100 = complete kill
Method: as §1, §2, §3, §4, §5, §6, §7, §8

[8] = tested on: corn poppy (Papaver rhoeas L; PAPRH); assay: Postemergence herbicidal activity, greenhouse, visual injury: corn poppy
Method: as §1, §2, §3, §4, §5, §6, §7, §8

[9] = tested on: wild buckwheat (Polygonum convolvulus L; POLCO); assay: Postemergence herbicidal activity, greenhouse, visual injury: wild buckwheat
Method: as §1, §2, §3, §4, §5, §6, §7, §8

[10] = tested on: Russian thistle (Salsola iberica L; SASKR); assay: Postemergence herbicidal activity, greenhouse, visual injury: Russian thistle; set-up: key: visual injury, 0–100%: 0 = no injury, 100 = complete kill
Method: as §1, §2, §3, §4, §5, §6, §7, §8

[11] = tested on: chickweed (Stellaria media L; STEME); assay: Postemergence herbicidal activity, greenhouse, visual injury: chickweed; set-up: key: visual injury, 0–100%: 0 = no injury, 100 = complete kill
Method: as §1, §2, §3, §4, §5, §6, §7, §8

[12] = tested on: bird's-eye speedwell (Veronica persica L; VERPE); assay: Postemergence herbicidal activity, greenhouse, visual injury: bird's-eye speedwell; set-up: key: visual injury, 0–100%: 0 = no injury, 100 = complete kill
Method: as §1, §2, §3, §4, §5, §6, §7, §8

[13] = Compound 1 K salt 8.75 g/ha alone
[14] = Compound 1 K salt 17.5 g/ha alone
[15] = Compound 1 K salt 35 g/ha alone

How did the “TRZAS Ob (Observed values)” value [1, 13] turn out when `COc1c(Cl)ccc(-c2cc(N)c(Cl)c(C(=O)[O-])n2)c1F.[K+]` [1 K salt] was run?
The value was 5.

And the “TRZAS Ob (Observed values)” value [1, 14]?
Its value is 8.

And the “TRZAS Ob (Observed values)” value [1, 15]?
The value was 27.

And the “HORVS Ob (Observed values)” value [2, 13]?
Its value is 1.7.

What about the “HORVS Ob (Observed values)” value [2, 14] of the same compound?
The value was 3.3.

What about the “HORVS Ob (Observed values)” value [2, 15] of the same compound?
The value was 6.7.

And the “MATCH Ob (Observed values)” value [3, 13]?
The value was 50.

What about the “MATCH Ob (Observed values)” value [3, 14] of the same compound?
Its value is 62.

What about the “MATCH Ob (Observed values)” value [3, 15] of the same compound?
The value was 57.

What about the “VIOTR Ob (Observed values)” value [4, 13] of the same compound?
Its value is 20.

And the “VIOTR Ob (Observed values)” value [4, 14]?
The value was 48.

And the “VIOTR Ob (Observed values)” value [4, 15]?
The value was 42.

With `COc1c(Cl)ccc(-c2cc(N)c(Cl)c(C(=O)O)n2)c1F` [Compound 1 TEA salt, 4-amino-3-chloro-6-(4-chloro-2-fluoro-3-methoxyphenyl)pyridine-2-carboxylic acid] as the compound, how does the “TRZAS Ob” value ([1]; applied alone at 140 g/ha) read?
Its value is 26%.

What about the TRZAS Ob ([1]; applied alone, 140 g/ha) of the same compound?
Its TRZAS Ob is 26%.

What about the “HORVS Ob” value ([2]; applied alone at 140 g/ha) of the same compound?
Its value is 16%.

And the HORVS Ob ([2]; applied alone, 140 g/ha)?
Its HORVS Ob is 16%.

What about the “GALAP Ob” value ([5]; applied alone at 140 g/ha) of the same compound?
The value was 100%.

And the “GALAP Ob” value ([5]; applied alone, 140 g/ha)?
Its value is 100.

And the “KCHSC Ob” value ([6]; applied alone at 140 g/ha)?
Its value is 94%.

And the “KCHSC Ob” value ([6]; applied alone, 140 g/ha)?
Its value is 94.

What about the “LAMPU Ob” value ([7]; applied alone at 140 g/ha) of the same compound?
The value was 99%.

And the “LAMPU Ob” value ([7]; applied alone, 140 g/ha)?
The value was 99.

What about the “MATCH Ob” value ([3]; applied alone at 140 g/ha) of the same compound?
The value was 80%.

What about the “MATCH Ob” value ([3]; applied alone, 140 g/ha) of the same compound?
The value was 80.

What about the “PAPRH Ob” value ([8]; applied alone at 140 g/ha) of the same compound?
Its value is 100%.

And the “PAPRH Ob” value ([8]; applied alone, 140 g/ha)?
Its value is 100.

And the “POLCO Ob” value ([9]; applied alone at 140 g/ha)?
Its value is 100%.

And the “POLCO Ob” value ([9]; applied alone, 140 g/ha)?
The value was 100.

What about the “SASKR Ob” value ([10]; applied alone at 140 g/ha) of the same compound?
Its value is 88%.

What about the “SASKR Ob” value ([10]; applied alone, 140 g/ha) of the same compound?
Its value is 88.

What about the “STEME Ob” value ([11]; applied alone at 140 g/ha) of the same compound?
The value was 94%.

What about the “STEME Ob” value ([11]; applied alone, 140 g/ha) of the same compound?
The value was 94.

What about the “VERPE Ob” value ([12]; applied alone at 140 g/ha) of the same compound?
The value was 85%.

What about the “VERPE Ob” value ([12]; applied alone, 140 g/ha) of the same compound?
The value was 85.

And the “VIOTR Ob” value ([4]; applied alone at 140 g/ha)?
Its value is 69%.

And the “VIOTR Ob” value ([4]; applied alone, 140 g/ha)?
The value was 69.

For `Clc1cc(Cl)nc(-c2ccccc2)n1` [Fenclorim], which “GALAP Ob” value ([5]; applied alone, 17.5 g/ha) is on record?
The value was 0.

What about the “GALAP Ob” value ([5]; applied alone, 35 g/ha) of the same compound?
Its value is 0.

What about the “GALAP Ob” value ([5]; applied alone, 70 g/ha) of the same compound?
Its value is 0.

What about the “GALAP Ob” value ([5]; applied alone, 140 g/ha) of the same compound?
Its value is 0.

And the “KCHSC Ob” value ([6]; applied alone, 17.5 g/ha)?
The value was 0.

What about the “KCHSC Ob” value ([6]; applied alone, 35 g/ha) of the same compound?
The value was 0.

And the “KCHSC Ob” value ([6]; applied alone, 70 g/ha)?
The value was 0.

And the “KCHSC Ob” value ([6]; applied alone, 140 g/ha)?
Its value is 0.

And the “LAMPU Ob” value ([7]; applied alone, 17.5 g/ha)?
Its value is 0.

And the “LAMPU Ob” value ([7]; applied alone, 35 g/ha)?
The value was 0.

What about the “LAMPU Ob” value ([7]; applied alone, 70 g/ha) of the same compound?
The value was 0.

And the “LAMPU Ob” value ([7]; applied alone, 140 g/ha)?
The value was 0.

And the “MATCH Ob” value ([3]; applied alone, 17.5 g/ha)?
The value was 0.

What about the “MATCH Ob” value ([3]; applied alone, 35 g/ha) of the same compound?
The value was 0.

And the “MATCH Ob” value ([3]; applied alone, 70 g/ha)?
Its value is 0.

And the “MATCH Ob” value ([3]; applied alone, 140 g/ha)?
The value was 0.

What about the “PAPRH Ob” value ([8]; applied alone, 17.5 g/ha) of the same compound?
Its value is 0.

And the “PAPRH Ob” value ([8]; applied alone, 35 g/ha)?
The value was 0.

And the “PAPRH Ob” value ([8]; applied alone, 70 g/ha)?
The value was 0.

What about the “PAPRH Ob” value ([8]; applied alone, 140 g/ha) of the same compound?
Its value is 0.

And the “POLCO Ob” value ([9]; applied alone, 17.5 g/ha)?
The value was 0.

What about the “POLCO Ob” value ([9]; applied alone, 35 g/ha) of the same compound?
The value was 0.

What about the “POLCO Ob” value ([9]; applied alone, 70 g/ha) of the same compound?
Its value is 0.

What about the “POLCO Ob” value ([9]; applied alone, 140 g/ha) of the same compound?
The value was 0.

And the “SASKR Ob” value ([10]; applied alone, 17.5 g/ha)?
Its value is 0.

What about the “SASKR Ob” value ([10]; applied alone, 35 g/ha) of the same compound?
Its value is 0.

What about the “SASKR Ob” value ([10]; applied alone, 70 g/ha) of the same compound?
Its value is 0.

And the “SASKR Ob” value ([10]; applied alone, 140 g/ha)?
The value was 0.

And the “STEME Ob” value ([11]; applied alone, 17.5 g/ha)?
The value was 0.

What about the “STEME Ob” value ([11]; applied alone, 35 g/ha) of the same compound?
Its value is 0.

And the “STEME Ob” value ([11]; applied alone, 70 g/ha)?
Its value is 0.

And the “STEME Ob” value ([11]; applied alone, 140 g/ha)?
Its value is 0.

What about the “VERPE Ob” value ([12]; applied alone, 17.5 g/ha) of the same compound?
The value was 0.

What about the “VERPE Ob” value ([12]; applied alone, 35 g/ha) of the same compound?
Its value is 0.

What about the “VERPE Ob” value ([12]; applied alone, 70 g/ha) of the same compound?
Its value is 0.

What about the “VERPE Ob” value ([12]; applied alone, 140 g/ha) of the same compound?
Its value is 0.

What about the “VIOTR Ob” value ([4]; applied alone, 17.5 g/ha) of the same compound?
The value was 0.

What about the “VIOTR Ob” value ([4]; applied alone, 35 g/ha) of the same compound?
The value was 0.

And the “VIOTR Ob” value ([4]; applied alone, 70 g/ha)?
Its value is 0.

What about the “VIOTR Ob” value ([4]; applied alone, 140 g/ha) of the same compound?
The value was 0.
